Results reported in the supplement of paper PMC10307832.

Assays:
Assay in all cases: relative viability (nuclei count vs DMSO), 5 days (fraction); higher = more cells survive
[1] = tested on: SW 1573
Method in brief: (§1)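 Nuclei were stained with Hoechst during a one-step fixation (final 0.05% Triton X-100, 1% formaldehyde, 1 ug/ml Hoechst) carried out 5 days after dosing, then counted on 4× images. The cells, lung cancer lines in 1536-well plates, had been dosed by pin tool the day after seeding with one drug alone or a fixed anchor-drug dose plus five library-drug doses (not always all listed) in √10 steps. Relative viability is the nuclei count in treated wells divided by that in vehicle wells, and each value is the median of duplicate plates.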

[2] = tested on: NCI-H727
Method in brief: as §1

[3] = tested on: LC-2-ad
Method in brief: as §1

[4] = tested on: HCC-15
Method in brief: as §1

[5] = tested on: LU99A
Method in brief: as §1

[6] = tested on: BEN
Method in brief: as §1

[7] = tested on: NCI-H1563
Method in brief: as §1

[8] = tested on: NCI-H650
Method in brief: as §1

[9] = tested on: NCI-H2023
Method in brief: as §1

[10] = tested on: NCI-H2126
Method in brief: as §1

[11] = tested on: NCI-H3122
Method in brief: as §1

[12] = tested on: EMC-BAC-2
Method in brief: as §1

[13] = tested on: NCI-H1915
Method in brief: as §1

[14] = tested on: NCI-H1755
Method in brief: as §1

[15] = tested on: NCI-H1437
Method in brief: as §1

[16] = tested on: HOP-62
Method in brief: as §1

[17] = tested on: NCI-H1734
Method in brief: as §1

[18] = tested on: HCC-44
Method in brief: as §1

Work on `Cc1csc(=NC2CCCCC2)n1/N=C/c1ccc(O)c(O)c1O` [MIM1] + CC(C)C[C@H](NC(=O)[C@H](Cc1ccccc1)NC(=O)c1cnccn1)B(O)O [Bortezomib] (partner 0.002 µM) yielded a relative viability ([1]; first compound 0.2 µM) of 0.937, a relative viability ([1]; first compound 0.6325 µM) of 1.05 and a relative viability ([1]; first compound 2 µM) of 0.978. It also gave a relative viability ([1]; first compound 6.325 µM) of 0.811, a relative viability ([1]; first compound 20 µM) of 0.592 and a relative viability ([2]; first compound 0.2 µM) of 0.671. The relative viability ([2]; first compound 0.6325 µM) was 0.785, the relative viability ([2]; first compound 2 µM) was 0.705 and the relative viability ([2]; first compound 6.325 µM) was 0.602. For the same compound, the relative viability ([2]; first compound 20 µM) was 0.286, the relative viability ([3]; first compound 0.2 µM) was 1.06 and the relative viability ([3]; first compound 0.6325 µM) was 0.545. For the same compound, the relative viability ([3]; first compound 2 µM) was 0.986, the relative viability ([3]; first compound 6.325 µM) was 0.383 and the relative viability ([3]; first compound 20 µM) was 0.201. It also gave a relative viability ([4]; first compound 0.2 µM) of 1.05, a relative viability ([4]; first compound 0.6325 µM) of 0.911 and a relative viability ([4]; first compound 2 µM) of 1.06. It also gave a relative viability ([4]; first compound 6.325 µM) of 0.36, a relative viability ([4]; first compound 20 µM) of 0.267 and a relative viability ([5]; first compound 0.2 µM) of 1.08. It also gave a relative viability ([5]; first compound 0.6325 µM) of 1.08, a relative viability ([5]; first compound 2 µM) of 1.1 and a relative viability ([5]; first compound 6.325 µM) of 0.987. The relative viability ([5]; first compound 20 µM) was 0.341, the relative viability ([6]; first compound 0.2 µM) was 0.719 and the relative viability ([6]; first compound 0.6325 µM) was 1.01. The relative viability ([6]; first compound 2 µM) was 0.929, the relative viability ([6]; first compound 6.325 µM) was 0.735 and the relative viability ([6]; first compound 20 µM) was 0.183. For the same compound, the relative viability ([7]; first compound 0.2 µM) was 0.894, the relative viability ([7]; first compound 0.6325 µM) was 0.96 and the relative viability ([7]; first compound 2 µM) was 0.744. For the same compound, the relative viability ([7]; first compound 6.325 µM) was 0.563, the relative viability ([7]; first compound 20 µM) was 0.465 and the relative viability ([8]; first compound 0.2 µM) was 0.769. It also gave a relative viability ([8]; first compound 0.6325 µM) of 0.73, a relative viability ([8]; first compound 2 µM) of 0.682 and a relative viability ([8]; first compound 6.325 µM) of 0.832. For the same compound, the relative viability ([8]; first compound 20 µM) was 0.296, the relative viability ([9]; first compound 0.2 µM) was 1.11 and the relative viability ([9]; first compound 0.6325 µM) was 0.916. The relative viability ([9]; first compound 2 µM) was 0.765, the relative viability ([9]; first compound 6.325 µM) was 0.35 and the relative viability ([9]; first compound 20 µM) was 0.0682. For the same compound, the relative viability ([10]; first compound 0.2 µM) was 1.13, the relative viability ([10]; first compound 0.6325 µM) was 1.1 and the relative viability ([10]; first compound 2 µM) was 1.13. For the same compound, the relative viability ([10]; first compound 6.325 µM) was 1.03, the relative viability ([10]; first compound 20 µM) was 1 and the relative viability ([11]; first compound 0.2 µM) was 1. For the same compound, the relative viability ([11]; first compound 0.6325 µM) was 1.06, the relative viability ([11]; first compound 2 µM) was 0.999 and the relative viability ([11]; first compound 6.325 µM) was 0.986. It also gave a relative viability ([11]; first compound 20 µM) of 0.235, a relative viability ([12]; first compound 0.2 µM) of 1.08 and a relative viability ([12]; first compound 0.6325 µM) of 0.822. It also gave a relative viability ([12]; first compound 2 µM) of 1.08, a relative viability ([12]; first compound 6.325 µM) of 0.996 and a relative viability ([12]; first compound 20 µM) of 0.259. The relative viability ([13]; first compound 0.2 µM) was 0.989, the relative viability ([13]; first compound 0.6325 µM) was 0.857 and the relative viability ([13]; first compound 2 µM) was 0.898. For the same compound, the relative viability ([13]; first compound 6.325 µM) was 0.461, the relative viability ([13]; first compound 20 µM) was 0.725 and the relative viability ([14]; first compound 0.2 µM) was 0.954. It also gave a relative viability ([14]; first compound 0.6325 µM) of 0.949, a relative viability ([14]; first compound 2 µM) of 0.893 and a relative viability ([14]; first compound 6.325 µM) of 0.776. For the same compound, the relative viability ([14]; first compound 20 µM) was 0.377, the relative viability ([15]; first compound 0.2 µM) was 0.441 and the relative viability ([15]; first compound 0.6325 µM) was 0.427. For the same compound, the relative viability ([15]; first compound 2 µM) was 0.536, the relative viability ([15]; first compound 6.325 µM) was 0.221 and the relative viability ([15]; first compound 20 µM) was 0.112. It also gave a relative viability ([16]; first compound 0.2 µM) of 1.04, a relative viability ([16]; first compound 0.6325 µM) of 0.611 and a relative viability ([16]; first compound 2 µM) of 0.746. For the same compound, the relative viability ([16]; first compound 6.325 µM) was 0.494, the relative viability ([16]; first compound 20 µM) was 0.116 and the relative viability ([17]; first compound 0.2 µM) was 1.12. It also gave a relative viability ([17]; first compound 0.6325 µM) of 0.799, a relative viability ([17]; first compound 2 µM) of 0.868 and a relative viability ([17]; first compound 6.325 µM) of 0.404. It also gave a relative viability ([17]; first compound 20 µM) of 0.159, a relative viability ([18]; first compound 0.2 µM) of 0.879 and a relative viability ([18]; first compound 0.6325 µM) of 0.816. It also gave a relative viability ([18]; first compound 2 µM) of 0.84, a relative viability ([18]; first compound 6.325 µM) of 0.446 and a relative viability ([18]; first compound 20 µM) of 0.141.
